# Laboratory results from patent publication US7767842B2, “Class of γδ T cells activators and use thereof” (Innate Pharma SA, priority 2002, dated 2010).
# Like-named read-outs stand apart in the source and are kept apart here.
# Assays:
# [1] = test system: primary polyclonal human Vγ9Vδ2 T cells; assay: Cytokine release assay: TNFα release from γδ T cells; format: cell-based
# Procedure: Cells (primary polyclonal human Vγ9Vδ2 T cells which have been expanded in vitro and stored frozen at day 12-15 of expansion) are thawed and rinsed twice and centrifuged. Upon elimination of supernatant and resuspension of cells, the cells are incubated for 24 h at 37° C. in the presence of IL2 100 IU/ml (final concentration). The cells are washed and centrifuged, following which the supernatant is eliminated and the cells are resuspended and adjusted to the adequate final concentration. The cells are added to the wells of a 96-well plate.
# To one row of wells is added a standard dilution series of […] (BrHPP). Compounds to be tested, in this case (E)-4-hydroxy-3-methyl-2-butenyl pyrophosphate (HDMAPP) and the N-HDMAPP compound of the invention are added to experimental wells, after several dilutions.
# Full plates are incubated 24 hours at 37° C. for stimulation of the γδ cells with the test compound and reference compounds, in this case N-HDMAPP, BrHPP and HDMAPP, as further described below. After this time, 100 μl of culture supernatant is taken for TNFα dosage. Measurement of the released TNFα dosage is performed as described by the manufacturer's instruction in the TNFα enzyme immunoassay kit (ref. 11121, Immunotech—Beckman Coulter). OD at 405 nm is read, the OD being proportional to the concentration of released TNFα in the culture supernatant. The data are processed with the Excel software to compare concentration of test compound versus concentration of TNFα and for the calculation of the EC50 for each test compound.
# The bioactivity of the compound N-HDMAPP was assessed using a TNFα release assay as described above. Compounds BrHPP and HDMAPP were included for purpose of comparison. […] As will be appreciated, any other suitable assays such as cell amplification may be used in assessing compounds.
# γδ T cells = details: at best; Wilhelm et al., 2003; cited from earlier work
# [2] = 24 hours stimulation at 37° C., TNFα enzyme immunoassay, relative screening test, read-out: in vitro EC50, TNFα release
compound,measurement,setting,value
"C/C(=C\COP(=O)(O)OP(=O)(O)O)CO [HDMAPP, (E)-4-hydroxy-3-methyl-2-butenyl pyrophosphate]",EC50,[1]; [2],2.1 nM
NCCC(O)(P(=O)(O)O)P(=O)(O)O [pamidronate],increase in γδ T cell count,γδ T cells,≤ 2 fold
"CC(O)(CBr)CCOP(=O)(O)OP(=O)(O)O (stereo not drawn) [BrHPP, 3-(bromomethyl)-3-butanol-1-yl-diphosphate]",EC50,"[1]; Homo sapiens, T-cell, prior assays, calibrated cells, read-out: EC50 in prior assays with calibrated cells using a BrHPP-standard composition",~15 nM
(E)-4-hydroxy-3-methylbut-2-enyl pyrophosphoramidate [N-HDMAPP],EC50,[1]; [2],0.63 nM
same,maximum TNFα release,"[1]; maximum level, FIG. 1",over 1800 pg/ml
same,increased potency over the most potent compounds tested so far,"[1]; ratio of EC50, TNFα release",3-4
